{
  "source": "BindingDB's records for doi:10.1002/1098-2396(20001215)38:4",
  "about": "(University of North Texas, 2000)",
  "data": [
    {"target": "D(2) dopamine receptor (Rattus norvegicus, UniProt P61169)", "sequence (P61169 whole entry)": "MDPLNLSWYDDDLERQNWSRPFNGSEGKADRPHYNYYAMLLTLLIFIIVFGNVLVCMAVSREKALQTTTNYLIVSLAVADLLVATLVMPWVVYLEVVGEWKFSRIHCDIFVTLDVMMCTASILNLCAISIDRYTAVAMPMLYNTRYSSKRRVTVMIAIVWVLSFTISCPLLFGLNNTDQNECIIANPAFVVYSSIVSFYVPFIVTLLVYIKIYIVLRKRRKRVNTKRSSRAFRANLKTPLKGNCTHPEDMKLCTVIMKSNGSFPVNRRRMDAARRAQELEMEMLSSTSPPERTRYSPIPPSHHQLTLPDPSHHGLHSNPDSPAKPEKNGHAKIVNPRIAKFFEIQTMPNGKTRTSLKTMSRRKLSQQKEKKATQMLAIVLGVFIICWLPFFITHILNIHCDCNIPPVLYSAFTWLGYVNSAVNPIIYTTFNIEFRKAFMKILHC", "units": {"Ki": "µM"}, "values": [
      {"compound": "O=C(c1ccc(F)cc1)C1CCN(CCn2c(=O)[nH]c3ccccc3c2=O)CC1", "note": "[3-(2-{4-[(4-fluorophenyl)carbonyl]piperidin-1-yl}ethyl)-1,2,3,4-tetrahydroquinazoline-2,4-dione]", "Ki": 2.71},
      {"compound": "CC(C)NCC(O)COc1cccc2[nH]ccc12", "note": "(stereo not drawn) [LB-46]", "Ki": "> 10"},
      {"compound": "Cc1ccc(N(CC2=NCCN2)c2cccc(O)c2)cc1", "note": "[SMR000059054]", "Ki": 1.77}
    ]}
  ]
}
